Assays:
[1] = tested on: Echinochloa oryzoides (Ard.) Fritsch.; test: Preemergence weed control under flooded paddy conditions, ECHORC (Watergrass (Calif.)); assay type: in vivo; conditions: preemergence, flooded paddy, rated 3-4 weeks after treatment
Cyperus iria = test: Preemergence weed control under flooded paddy conditions, CYPIR (Rice Flatsedge); assay type: in vivo; conditions: preemergence, flooded paddy, rated 3-4 weeks after treatment
[2] = tested on: Cyperus serotinus, Rottb.; test: Preemergence weed control under flooded paddy conditions, CYPSE (Flatsedge); assay type: in vivo; conditions: preemergence, rated 3-4 weeks after treatment
[3] = tested on: Monochoria vaginalis, Presl.; test: Preemergence weed control under flooded paddy conditions, MOOVA (Monochoria); assay type: in vivo; conditions: preemergence, flooded paddy, rated 3-4 weeks after treatment
Sagittaria pygmaea, L. = test: Preemergence weed control under flooded paddy conditions, SAGPY (Arrowhead (Pygmaea)); assay type: in vivo; conditions: preemergence, flooded paddy, rated 3-4 weeks after treatment
[4] = tested on: Oryza sativa, (L.) Tebonnet; test: Rice tolerance to post-transplant applications under flooded paddy conditions (Example 187), ORYSAT (Rice, Tebonnet); conditions: rated 3-4 weeks after treatment
Further: meaning of each grade not given here.

CCOC(=O)c1ccc(NC(=O)C(C)Oc2ccc(C)cc2-c2nsc3ccc(-n4c(=O)cc(C(F)(F)F)n(C)c4=O)cc23)cc1 (centres unmarked) [Example 541, Benzoic acid, p-{2-{{2-{5-[3,6-dihydro-3-methyl-2,6-dioxo-4-(trifluoromethyl)-1(2H)-pyrimidinyl]-1,2-benzisothiazol-3-yl}-p-tolyl}oxy}propionamido}-, ethyl ester]
herbicidal effect rating, ECHORC ([1]; Rate 0.0620 kg/ha): 0.0 | herbicidal effect rating, ECHORC ([1]; Rate 0.1250 kg/ha): 0.0 | herbicidal effect rating, ECHORC ([1]; Rate 0.2500 kg/ha): 4.0 | herbicidal effect rating, ECHORC ([1]; Rate 0.5000 kg/ha): 6.0 | herbicidal effect rating, CYPIR (Cyperus iria; Rate 0.0620 kg/ha): 3.0 | herbicidal effect rating, CYPIR (Cyperus iria; Rate 0.1250 kg/ha): 4.0 | herbicidal effect rating, CYPIR (Cyperus iria; Rate 0.2500 kg/ha): 6.0 | herbicidal effect rating, CYPIR (Cyperus iria; Rate 0.5000 kg/ha): 9.0 | herbicidal effect rating, CYPSE ([2]; Rate 0.0620 kg/ha): 0.0 | herbicidal effect rating, CYPSE ([2]; Rate 0.1250 kg/ha): 0.0 | herbicidal effect rating, CYPSE ([2]; Rate 0.2500 kg/ha): 0.0 | herbicidal effect rating, CYPSE ([2]; Rate 0.5000 kg/ha): 0.0 | herbicidal effect rating, MOOVA ([3]; Rate 0.0620 kg/ha): 9.0 | herbicidal effect rating, MOOVA ([3]; Rate 0.1250 kg/ha): 9.0 | herbicidal effect rating, MOOVA ([3]; Rate 0.2500 kg/ha): 9.0 | herbicidal effect rating, MOOVA ([3]; Rate 0.5000 kg/ha): 9.0 | herbicidal effect rating, SAGPY (Sagittaria pygmaea, L.; Rate 0.0620 kg/ha): 0.0 | herbicidal effect rating, SAGPY (Sagittaria pygmaea, L.; Rate 0.1250 kg/ha): 0.0 | herbicidal effect rating, SAGPY (Sagittaria pygmaea, L.; Rate 0.2500 kg/ha): 0.0 | herbicidal effect rating, SAGPY (Sagittaria pygmaea, L.; Rate 0.5000 kg/ha): 0.0 | herbicidal effect rating ORYSAT ([4]; Rate 0.0620 kg/ha): 0.0 | herbicidal effect rating ORYSAT ([4]; Rate 0.1250 kg/ha): 0.0 | herbicidal effect rating ORYSAT ([4]; Rate 0.2500 kg/ha): 0.0 | herbicidal effect rating ORYSAT ([4]; Rate 0.5000 kg/ha): 2.0

Cc1ccc(OC(C)C(=O)c2ccc(C)c(C)c2)c(-c2nsc3ccc(-n4c(=O)cc(C(F)(F)F)n(C)c4=O)cc23)c1 (centres unmarked) [Example 542, 2,4(1H,3H)-Pyrimidinedione, 3-{3-{6-[1-(3,4-dimethylbenzoyl)ethoxy]-m-tolyl}-1,2-benzisothiazol-5-yl}-1-methyl-6-(trifluoromethyl)-]
herbicidal effect rating, ECHORC ([1]; Rate 0.0320 kg/ha): 1.7 | herbicidal effect rating, ECHORC ([1]; Rate 0.0620 kg/ha): 2.7 | herbicidal effect rating, ECHORC ([1]; Rate 0.1250 kg/ha): 4.3 | herbicidal effect rating, ECHORC ([1]; Rate 0.2500 kg/ha): 8.0 | herbicidal effect rating, ECHORC ([1]; Rate 0.5000 kg/ha): 9.0 | herbicidal effect rating, CYPIR (Cyperus iria; Rate 0.0320 kg/ha): 0.0 | herbicidal effect rating, CYPIR (Cyperus iria; Rate 0.0620 kg/ha): 0.0 | herbicidal effect rating, CYPIR (Cyperus iria; Rate 0.1250 kg/ha): 2.0 | herbicidal effect rating, CYPIR (Cyperus iria; Rate 0.2500 kg/ha): 4.0 | herbicidal effect rating, CYPIR (Cyperus iria; Rate 0.5000 kg/ha): 9.0 | herbicidal effect rating, CYPSE ([2]; Rate 0.0320 kg/ha): 0.0 | herbicidal effect rating, CYPSE ([2]; Rate 0.0620 kg/ha): 0.0 | herbicidal effect rating, CYPSE ([2]; Rate 0.1250 kg/ha): 0.0 | herbicidal effect rating, CYPSE ([2]; Rate 0.5000 kg/ha): 0.0 | herbicidal effect rating, MOOVA ([3]; Rate 0.0320 kg/ha): 7.0 | herbicidal effect rating, MOOVA ([3]; Rate 0.0620 kg/ha): 9.0 | herbicidal effect rating, MOOVA ([3]; Rate 0.1250 kg/ha): 9.0 | herbicidal effect rating, MOOVA ([3]; Rate 0.2500 kg/ha): 9.0 | herbicidal effect rating, MOOVA ([3]; Rate 0.5000 kg/ha): 9.0 | herbicidal effect rating, SAGPY (Sagittaria pygmaea, L.; Rate 0.0320 kg/ha): 0.0 | herbicidal effect rating, SAGPY (Sagittaria pygmaea, L.; Rate 0.0620 kg/ha): 0.0 | herbicidal effect rating, SAGPY (Sagittaria pygmaea, L.; Rate 0.1250 kg/ha): 0.0 | herbicidal effect rating, SAGPY (Sagittaria pygmaea, L.; Rate 0.2500 kg/ha): 0.0 | herbicidal effect rating, SAGPY (Sagittaria pygmaea, L.; Rate 0.5000 kg/ha): 9.0 | herbicidal effect rating ORYSAT ([4]; Rate 0.0320 kg/ha): 0.0 | herbicidal effect rating ORYSAT ([4]; Rate 0.0620 kg/ha): 0.0 | herbicidal effect rating ORYSAT ([4]; Rate 0.1250 kg/ha): 0.0 | herbicidal effect rating ORYSAT ([4]; Rate 0.2500 kg/ha): 0.0 | herbicidal effect rating ORYSAT ([4]; Rate 0.5000 kg/ha): 2.0

Cc1ccc(OCC(=O)c2ccc(OC(F)F)cc2)c(-c2nsc3ccc(-n4c(=O)cc(C(F)(F)F)n(C)c4=O)cc23)c1 [Example 543, 2,4(1H,3H)-Pyrimidinedione, 3-{3-{6-{[p-(difluoromethoxy)phenacyl]oxy}-m-tolyl}-1,2-benzisothiazol-5-yl}-1-methyl-6-(trifluoromethyl)-]
herbicidal effect rating, ECHORC ([1]; Rate 0.0320 kg/ha): 2.1 | herbicidal effect rating, ECHORC ([1]; Rate 0.0620 kg/ha): 2.9 | herbicidal effect rating, ECHORC ([1]; Rate 0.1250 kg/ha): 4.0 | herbicidal effect rating, ECHORC ([1]; Rate 0.2500 kg/ha): 7.0 | herbicidal effect rating, ECHORC ([1]; Rate 0.5000 kg/ha): 9.0 | herbicidal effect rating, CYPIR (Cyperus iria; Rate 0.0320 kg/ha): 2.0 | herbicidal effect rating, CYPIR (Cyperus iria; Rate 0.0620 kg/ha): 6.0 | herbicidal effect rating, CYPIR (Cyperus iria; Rate 0.1250 kg/ha): 7.0 | herbicidal effect rating, CYPIR (Cyperus iria; Rate 0.2500 kg/ha): 8.0 | herbicidal effect rating, CYPIR (Cyperus iria; Rate 0.5000 kg/ha): 3.0 | herbicidal effect rating, CYPSE ([2]; Rate 0.0320 kg/ha): 0.0 | herbicidal effect rating, CYPSE ([2]; Rate 0.0620 kg/ha): 0.0 | herbicidal effect rating, CYPSE ([2]; Rate 0.1250 kg/ha): 0.0 | herbicidal effect rating, CYPSE ([2]; Rate 0.2500 kg/ha): 0.0 | herbicidal effect rating, CYPSE ([2]; Rate 0.5000 kg/ha): 0.0 | herbicidal effect rating, MOOVA ([3]; Rate 0.0320 kg/ha): 9.0 | herbicidal effect rating, MOOVA ([3]; Rate 0.0620 kg/ha): 9.0 | herbicidal effect rating, MOOVA ([3]; Rate 0.1250 kg/ha): 9.0 | herbicidal effect rating, MOOVA ([3]; Rate 0.2500 kg/ha): 9.0 | herbicidal effect rating, MOOVA ([3]; Rate 0.5000 kg/ha): 9.0 | herbicidal effect rating, SAGPY (Sagittaria pygmaea, L.; Rate 0.0320 kg/ha): 0.0 | herbicidal effect rating, SAGPY (Sagittaria pygmaea, L.; Rate 0.0620 kg/ha): 0.0 | herbicidal effect rating, SAGPY (Sagittaria pygmaea, L.; Rate 0.1250 kg/ha): 0.0 | herbicidal effect rating, SAGPY (Sagittaria pygmaea, L.; Rate 0.2500 kg/ha): 0.0 | herbicidal effect rating, SAGPY (Sagittaria pygmaea, L.; Rate 0.5000 kg/ha): 0.0 | herbicidal effect rating ORYSAT ([4]; Rate 0.0320 kg/ha): 0.0 | herbicidal effect rating ORYSAT ([4]; Rate 0.0620 kg/ha): 0.0 | herbicidal effect rating ORYSAT ([4]; Rate 0.1250 kg/ha): 1.0 | herbicidal effect rating ORYSAT ([4]; Rate 0.2500 kg/ha): 2.0 | herbicidal effect rating ORYSAT ([4]; Rate 0.5000 kg/ha): 2.0

— patent EP0908457B1, “3-(1,2-benzisothiazol- and isoxazol-5-Y1)-2,4(1H,3H)-pyrimidinedione or thione and 3-(1,2-benzisothiazol- and isoxazol-5-y1)-4(3H)-pyrimidinone or thione herbicidal agents” (BASF AKTIENGESELLSCHAFT, priority 1997, dated 1999)
